Experimental data reported in patent US10294202B2, “Pyrrolidinones as herbicides” (FMC Corporation, priority 2013, dated 2019).
Where two headings read alike, the source gives them in different places.

What was measured:
velvetleaf = assay: Test A pre-/postemergence herbicide test; type: in vivo, Abutilon theophrasti; details: for pest or weed control at 500 g/ha: 500 g ai/ha
Summary of the method: (§1)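 Both application timings used compounds in a non-phytotoxic solvent plus surfactant. Pre-emergence: soil sprayed directly after seeding into loam/sand. Post-emergence: foliage of 2–10 cm seedlings (1–2 leaves) sprayed. Injury rated ~10 days later, 0–100.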

chickweed = assay: Test C postemergence herbicide test; type: in vivo, Stellaria media
Summary of the method: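 Response is scored visually on a 0–100 scale (100 = complete control) relative to untreated controls, 13 to 15 days after treatment. Plants were sprayed postemergence at the 1- to 4-leaf stage (2 to 18 cm tall) and kept in a greenhouse.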

barnyardgrass = assay: Test C flooded paddy test; type: in vivo, Echinochloa crus-galli; details: Flood
Summary of the method: (§2)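 Visual injury scored against controls after 13 to 15 days in the greenhouse, using 0 (no effect) to 100 (complete control). Test compounds went straight into paddy water held 3 cm above the soil surface on 2-leaf-stage plants, with that flood depth maintained for the whole test.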

sedge, umbrella = assay: Test C flooded paddy test; type: in vivo, Cyperus difformis; details: Flood
Summary of the method: as §2

morningglory = assay: Test A pre-/postemergence herbicide test; type: in vivo, Ipomoea spp.; details: for pest or weed control at 500 g/ha: 500 g ai/ha
Summary of the method: as §1

rice = assay: Test C flooded paddy test; type: in vivo, Oryza sativa; details: Flood
Summary of the method: as §2

crabgrass, large = assay: Test A pre-/postemergence herbicide test; type: in vivo, Digitaria sanguinalis; details: for pest or weed control at 500 g/ha: 500 g ai/ha
Summary of the method: as §1

blackgrass = assay: Test A postemergence herbicide test; type: in vivo, Alopecurus myosuroides
Summary of the method: (§3)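 Young potted plants in a loam–sand mix, one- to two-leaf stage and 2–10 cm tall, receive the test chemical postemergence and stay in a greenhouse for approximately 10 days. Injury is then judged by eye against untreated plants, scored 0 (none) to 100 (complete control).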

galium = assay: Test A postemergence herbicide test; type: in vivo, Galium aparine
Summary of the method: as §3

kochia = assay: Test A pre-/postemergence herbicide test; type: in vivo, Kochia scoparia; details: for Plant response rating, Kochia: 0 to 100 scale
Summary of the method: as §1

ryegrass, Italian = assay: Test A pre-/postemergence herbicide test; type: in vivo, Lolium multiflorum; details: for Plant response rating, Ryegrass, Italian: 0 to 100 scale
Summary of the method: as §1

ragweed = assay: Test A pre-/postemergence herbicide test; type: in vivo, Ambrosia elatior; details: for Plant response rating, Ragweed: 0 to 100 scale
Summary of the method: as §1

[1] = Preemergence, 125 g ai/ha, visual rating on 0 to 100 scale (0 no effect, 100 complete control)
[2] = 125 g ai/ha, scale 0 to 100 (0 no effect, 100 complete control)
[3] = 250 g ai/ha, scale 0 to 100 (0 no effect, 100 complete control)
[4] = 31 g ai/ha, scale of 0 to 100 where 0 is no effect and 100 is complete control, 13 to 15 days
[5] = 62 g ai/ha, scale of 0 to 100 where 0 is no effect and 100 is complete control, 13 to 15 days
[6] = 125 g ai/ha, scale of 0 to 100 where 0 is no effect and 100 is complete control, 13 to 15 days
[7] = 125 g ai/ha, 0 to 100 scale, 0 is no effect, 100 is complete control
[8] = 125 g ai/ha, visual rating, 0 no effect, 100 complete control, approximately 10 days, preemergence
[9] = Postemergence, 125 g ai/ha, 0 is no effect, 100 is complete control
[10] = preemergence, 500 g ai/ha, 0 is no effect and 100 is complete control
[11] = 250 g ai/ha, scale of 0 to 100 where 0 is no effect and 100 is complete control, 13 to 15 days

## O=C1NCC(c2ccc(C(F)(F)F)cc2)C1C(=O)Nc1cccc(F)c1F (stereo not drawn) [Compound 80, N-(2,3-difluorophenyl)-2-oxo-4-[4-(trifluoromethyl)phenyl]-3-pyrrolidinecarboxamide]
velvetleaf; Abutilon theophrasti, post-emergence, 240 h, Postemergence, 125 g ai/ha, 0 to 100 scale, 0 no effect, 100 complete control, read-out: Plant response rating, Velvetleaf
  pest or weed control at 125 g/ha: 10%
velvetleaf; Abutilon theophrasti, post-emergence, 240 h, Postemergence, 0 to 100 scale (0 no effect, 100 complete control), read-out: Plant response rating, Velvetleaf
  pest or weed control at 500 g/ha: 60%
velvetleaf; Abutilon theophrasti, pre-emergence, 240 h, preemergence, 0 to 100 scale, read-out: Plant response rating, Velvetleaf
  pest or weed control at 500 g/ha: 30%
velvetleaf; [1]
  Velvetleaf plant response rating: 0
chickweed; 31 g ai/ha, scale 0 (no effect) to 100 (complete control)
  Plant response rating, Chickweed: 70
chickweed; 62 g ai/ha, scale 0 to 100 (0 no effect, 100 complete control)
  Plant response rating, Chickweed: 85
chickweed; [2]
  Plant response rating, Chickweed: 90
chickweed; [3]
  Plant response rating, Chickweed: 90
barnyardgrass; [4]
  Plant response rating, Barnyardgrass: 0
barnyardgrass; [5]
  Plant response rating, Barnyardgrass: 0
barnyardgrass; [6]
  Plant response rating, Barnyardgrass: 0
barnyardgrass; 250 g ai/ha, scale 0 to 100
  Plant response rating, Barnyardgrass: 20
sedge, umbrella; [4]
  Plant response rating, Sedge, Umbrella: 35
sedge, umbrella; [5]
  Plant response rating, Sedge, Umbrella: 35
sedge, umbrella; [6]
  Plant response rating, Sedge, Umbrella: 55
sedge, umbrella; 250 g ai/ha, scale 0 to 100
  Plant response rating, Sedge, Umbrella: 65
morningglory; Ipomoea, post-emergence, 240 h, Postemergence, 125 g ai/ha, 0 to 100 scale, 0 no effect, 100 complete control, read-out: Plant response rating, Morningglory
  pest or weed control at 125 g/ha: 0%
morningglory; Ipomoea, post-emergence, 240 h, Postemergence, 0 to 100 scale (0 no effect, 100 complete control), read-out: Plant response rating, Morningglory
  pest or weed control at 500 g/ha: 0%
morningglory; Ipomoea, pre-emergence, 240 h, preemergence, 0 to 100 scale, read-out: Plant response rating, Morningglory
  pest or weed control at 500 g/ha: 0%
morningglory; [1]
  Morningglory plant response rating: 0
rice; [4]
  Plant response rating, Rice: 0
rice; [5]
  Plant response rating, Rice: 0
rice; [6]
  Plant response rating, Rice: 0
rice; 250 g ai/ha, scale 0 to 100
  Plant response rating, Rice: 0
crabgrass, large; Digitaria sanguinalis, post-emergence, 240 h, Postemergence, 125 g ai/ha, 0 to 100 scale, 0 no effect, 100 complete control, read-out: Plant response rating, Crabgrass, Large
  pest or weed control at 125 g/ha: 80%
crabgrass, large; Digitaria sanguinalis, post-emergence, 240 h, Postemergence, 0 to 100 scale (0 no effect, 100 complete control), read-out: Plant response rating, Crabgrass, Large
  pest or weed control at 500 g/ha: 90%
crabgrass, large; Digitaria sanguinalis, pre-emergence, 240 h, preemergence, 0 to 100 scale, read-out: Plant response rating, Crabgrass, Large
  pest or weed control at 500 g/ha: 90%
crabgrass, large; [1]
  Crabgrass, Large plant response rating: 90

## O=C1NC[C@H](c2cccc(C(F)(F)F)c2)[C@H]1C(=O)Nc1ccccc1F [Compound 204, (3R,4S)—N-(2-fluorophenyl)-2-oxo-4-[3-(trifluoromethyl)phenyl]-3-pyrrolidinecarboxamide]
blackgrass; [7]
  Plant response rating, Blackgrass: 70
blackgrass; 500 g ai/ha
  Blackgrass plant response rating (0 to 100 scale, 0 is no effect, 100 is complete control): 80
galium; [7]
  Plant response rating, Galium: 50
galium; 500 g ai/ha
  Galium plant response rating (0 to 100 scale, 0 is no effect, 100 is complete control): 60
kochia; [8]
  Plant response rating, Kochia: 0
kochia; [9]
  Plant response rating, Kochia: 20
kochia; Postemergence, 500 g ai/ha
  Kochia plant response rating (0 to 100 scale, 0 is no effect, 100 is complete control): 60
kochia; [10]
  Plant response rating, Kochia: 80
chickweed; 31 g ai/ha, scale 0 to 100 (0 no effect, 100 complete control)
  Plant response rating, Chickweed: 0
chickweed; 62 g ai/ha, scale 0 (no effect) to 100 (complete control)
  Plant response rating, Chickweed: 30
chickweed; [2]
  Plant response rating, Chickweed: 55
chickweed; [3]
  Plant response rating, Chickweed: 65
barnyardgrass; [6]
  Plant response rating, Barnyardgrass: 50
barnyardgrass; [11]
  Plant response rating, Barnyardgrass: 70
barnyardgrass; 500 g ai/ha, scale 0 to 100
  Plant response rating, Barnyardgrass: 75
barnyardgrass; 1000 g ai/ha, scale 0 to 100
  Plant response rating, Barnyardgrass: 80
ryegrass, Italian; [8]
  Plant response rating, Ryegrass, Italian: 20
ryegrass, Italian; [9]
  Plant response rating, Ryegrass, Italian: 30
ryegrass, Italian; Postemergence, 500 g ai/ha
  Ryegrass, Italian plant response rating (0 to 100 scale, 0 is no effect, 100 is complete control): 50
ryegrass, Italian; [10]
  Plant response rating, Ryegrass, Italian: 50
ragweed; [8]
  Plant response rating, Ragweed: 0
ragweed; [9]
  Plant response rating, Ragweed: 0
ragweed; Postemergence, 500 g ai/ha
  Ragweed plant response rating (0 to 100 scale, 0 is no effect, 100 is complete control): 0
ragweed; [10]
  Plant response rating, Ragweed: 80
sedge, umbrella; [6]
  Plant response rating, Sedge, Umbrella: 0
sedge, umbrella; [11]
  Plant response rating, Sedge, Umbrella: 0
sedge, umbrella; 500 g ai/ha, scale 0 to 100
  Plant response rating, Sedge, Umbrella: 0
sedge, umbrella; 1000 g ai/ha, scale 0 to 100
  Plant response rating, Sedge, Umbrella: 0
rice; [6]
  Plant response rating, Rice: 0
rice; [11]
  Plant response rating, Rice: 0
rice; 500 g ai/ha, scale 0 to 100
  Plant response rating, Rice: 0
rice; 1000 g ai/ha, scale 0 to 100
  Plant response rating, Rice: 10
